For 10 compounds, IC50 results are on record in patent publication US11643388B2, “Inhibitors of alpha 2 beta 1 integrin and methods of use thereof” (The Regents of the University of California, priority 2020, dated 2023).

The target in assay [1] is T1, α2β1 (Homo sapiens, UniProt P05556+P17301). As to the kind of experiment: α2β1 cell adhesion assay. The format is cell-based.
Assay [2] deals with T1, α2β1. The assay is described as follows: α2β1 cell adhesion. Format: cell-based.

pIC50: −log10 of the molar value.

T1 sequence (P17301 30-1181): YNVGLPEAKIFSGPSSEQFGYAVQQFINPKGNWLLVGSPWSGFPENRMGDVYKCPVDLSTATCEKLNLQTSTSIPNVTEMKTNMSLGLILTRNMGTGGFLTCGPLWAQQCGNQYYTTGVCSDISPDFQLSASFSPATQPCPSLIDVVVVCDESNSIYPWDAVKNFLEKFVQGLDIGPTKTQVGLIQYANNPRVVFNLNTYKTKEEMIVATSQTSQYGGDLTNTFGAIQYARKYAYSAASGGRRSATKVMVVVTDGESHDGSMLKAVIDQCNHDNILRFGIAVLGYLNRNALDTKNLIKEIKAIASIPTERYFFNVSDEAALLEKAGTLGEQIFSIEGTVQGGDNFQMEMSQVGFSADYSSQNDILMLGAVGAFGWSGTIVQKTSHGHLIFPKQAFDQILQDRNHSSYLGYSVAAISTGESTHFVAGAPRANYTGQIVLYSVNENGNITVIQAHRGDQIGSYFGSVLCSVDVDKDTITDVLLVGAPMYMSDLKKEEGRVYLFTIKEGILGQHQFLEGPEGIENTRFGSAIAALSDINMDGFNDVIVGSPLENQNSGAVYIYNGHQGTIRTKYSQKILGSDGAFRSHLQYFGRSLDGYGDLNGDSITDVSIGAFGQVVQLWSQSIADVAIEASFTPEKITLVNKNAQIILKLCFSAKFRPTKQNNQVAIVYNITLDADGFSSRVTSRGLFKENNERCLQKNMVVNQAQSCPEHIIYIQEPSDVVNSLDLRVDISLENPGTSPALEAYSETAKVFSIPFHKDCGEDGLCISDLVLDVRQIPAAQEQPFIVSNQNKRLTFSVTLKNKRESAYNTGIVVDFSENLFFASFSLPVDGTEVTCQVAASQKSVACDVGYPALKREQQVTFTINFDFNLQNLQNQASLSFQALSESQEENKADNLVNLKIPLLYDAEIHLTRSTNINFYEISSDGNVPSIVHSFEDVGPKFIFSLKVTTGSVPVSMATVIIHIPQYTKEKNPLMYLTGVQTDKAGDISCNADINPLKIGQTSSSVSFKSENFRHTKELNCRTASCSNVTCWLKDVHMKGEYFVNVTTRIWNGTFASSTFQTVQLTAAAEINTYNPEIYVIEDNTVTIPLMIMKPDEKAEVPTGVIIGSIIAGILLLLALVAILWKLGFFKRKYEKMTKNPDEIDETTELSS
T1 sequence (P05556 21-798): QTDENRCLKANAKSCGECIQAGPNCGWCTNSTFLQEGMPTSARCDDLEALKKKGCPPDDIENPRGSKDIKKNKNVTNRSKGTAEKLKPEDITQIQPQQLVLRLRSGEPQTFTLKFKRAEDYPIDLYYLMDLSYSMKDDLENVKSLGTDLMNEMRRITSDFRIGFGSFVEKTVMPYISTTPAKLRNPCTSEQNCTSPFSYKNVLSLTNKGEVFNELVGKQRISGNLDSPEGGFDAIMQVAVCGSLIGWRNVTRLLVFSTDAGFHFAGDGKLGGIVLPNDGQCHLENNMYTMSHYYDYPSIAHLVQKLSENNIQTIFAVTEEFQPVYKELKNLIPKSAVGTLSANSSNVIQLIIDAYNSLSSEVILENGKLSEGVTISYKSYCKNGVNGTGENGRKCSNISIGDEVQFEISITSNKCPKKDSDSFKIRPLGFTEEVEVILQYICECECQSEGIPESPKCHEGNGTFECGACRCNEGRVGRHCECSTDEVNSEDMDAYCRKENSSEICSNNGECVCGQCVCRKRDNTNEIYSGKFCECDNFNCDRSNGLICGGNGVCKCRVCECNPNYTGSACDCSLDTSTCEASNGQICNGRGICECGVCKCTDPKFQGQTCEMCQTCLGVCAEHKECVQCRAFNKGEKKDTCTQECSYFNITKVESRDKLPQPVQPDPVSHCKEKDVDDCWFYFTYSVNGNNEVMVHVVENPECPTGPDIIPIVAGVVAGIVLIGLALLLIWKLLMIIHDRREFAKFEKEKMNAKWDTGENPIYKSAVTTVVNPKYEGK

The pIC50 is the negative decadic logarithm of the IC50, by convention in mol/L. High values mean a small IC50, low ones a large IC50. Regarding `O=C(NC[C@H](NC(=O)c1c(Cl)cc(C(=O)NCc2cccc(F)c2)cc1Cl)C(=O)O)N[C@@H]1CCc2ccccc21` [SU15210-0289, (S)-2-(2,6-dichloro-4-(3-fluorobenzylcarbamoyl)benzamido)-3-(3-((R)-2,3-dihydro-1H-inden-1-yl)ureido)propanoic Acid], on α2β1 [1], the pIC50 is above 6.30.
As for `N#Cc1cccc(CNC(=O)c2cc(Cl)c(C(=O)N[C@@H](CNC(=O)N[C@@H]3CCc4ccccc43)C(=O)O)c(Cl)c2)c1` [SU15210-0292, (S)-2-(2,6-dichloro-4-(3-cyanobenzylcarbamoyl)benzamido)-3-(3-((R)-2,3-dihydro-1H-inden-1-yl)ureido)propanoic Acid], the pIC50 on α2β1 [1] is above 6.30.
`CN(Cc1ccccc1)C(=O)NC[C@H](NC(=O)c1c(Cl)cc2c(c1Cl)CCN(Cc1cccc(Cl)c1)C2=O)C(=O)O` [SU15210-0242-01, (S)-3-(3-benzyl-3-methylureido)-2-(5,7-dichloro-2-(3-chlorobenzyl)-1-oxo-1,2,3,4-tetrahydroisoquinoline-6-carboxamido)propanoic Acid] had a pIC50 at α2β1 [1] above 6.30.
The same measure, in the same setting: in the case of `CN(Cc1ccccc1)C(=O)NC[C@H](NC(=O)c1c(Cl)cc2c(c1Cl)CCN(CC1CC1)C2=O)C(=O)O` [SU15210-0251, (2S)-3-[[benzyl(methyl)carbamoyl]amino]-2-[[5,7-dichloro-2-(cyclopropylmethyl)-1-oxo-3,4-dihydroisoquinoline-6-carbonyl]amino]propanoic Acid] it was 5.30 to 6.00.
Same read-out and setting: in the case of `CN(Cc1ccccc1)C(=O)NC[C@H](NC(=O)c1c(Cl)cc2c(c1Cl)CCN(Cc1ccccc1)C2=O)C(=O)O` [SU15210-0245-01, (2S)-2-[(2-benzyl-5,7-dichloro-1-oxo-3,4-dihydroisoquinoline-6-carbonyl)amino]-3-[[benzyl(methyl)carbamoyl]amino]propanoic Acid] it was below 5.30.
On the same count and under the same terms, the same measure for `CCOC(=O)[C@H](CNC(=O)N[C@@H]1CCc2ccccc21)NC(=O)c1c(Cl)cc(C(=O)NCc2cccc(Cl)c2)cc1Cl` [SU15210-0280, (S)-ethyl 2-(2,6-dichloro-4-(3-chlorobenzylcarbamoyl)benzamido)-3-(3-((R)-2,3-dihydro-1H-inden-1-yl)ureido)propanoate]: 5.30 to 6.00.
At α2β1 [1], `O=C(NC[C@H](NC(=O)c1c(Cl)cc2c(c1Cl)CCN(Cc1cccc(Cl)c1)C2=O)C(=O)O)N[C@@H]1CCc2ccccc21` [SU15210-0243-01, (2S)-2-[[5,7-dichloro-2-[(3-chlorophenyl)methyl]-1-oxo-3,4-dihydroisoquinoline-6-carbonyl]amino]-3-[[(1R)-indan-1-yl]carbamoylamino]propanoic Acid] gave a pIC50 below 5.30.
Still for that read-out and setting: in the case of `CN(Cc1ccccc1)C(=O)NC[C@H](NC(=O)c1c(Cl)cc2c(c1Cl)CCN(CC#CC1CC1)C2=O)C(=O)O` [SU15210-0265, (S)-3-(3-benzyl-3-methylureido)-2-(5,7-dichloro-2-(3-cyclopropylprop-2-ynyl)-1-oxo-1,2,3,4-tetrahydroisoquinoline-6-carboxamido)propanoic Acid] it was below 5.30.
`O=C(NC[C@H](NC(=O)c1c(Cl)cc(C(=O)NCc2cccc(C(F)(F)F)c2)cc1Cl)C(=O)O)N[C@@H]1CCc2ccccc21` [SU15210-0293, (S)-2-(2,6-dichloro-4-(3-(trifluoromethyl)benzylcarbamoyl)benzamido)-3-(3-((R)-2,3-dihydro-1H-inden-1-yl)ureido)propanoic Acid] gave a pIC50 on α2β1 [1] above 6.30.
With `Cc1ccc(CC(=O)Nc2ccc(Cl)c(C(=O)N[C@@H](CNC(=O)N[C@@H]3CCc4ccccc43)C(=O)O)c2Cl)cc1Cl` [SU15210-0154-01, (S)-2-(2,6-dichloro-3-(2-(3-chloro-4-methylphenyl)acetamido)benzamido)-3-(3-((R)-2,3-dihydro-1H-inden-1-yl)ureido)propanoic Acid], on α2β1 [2], the pIC50 was 5.30 to 6.00.
